From article PMC11289166 (Biochemistry, 2024)
Entries after “also recorded” stand apart in the source; their conditions may differ. Ends that are not written are not given here. * marks the point of attachment. MTSL = nitroxide spin label, CC1(C)C=C(CS*)C(C)(C)N1[O]

Tests used:
[1] = target: T1, CRY Asn253Ala/Gln254Ala (Drosophila melanogaster, UniProt O77059, N253A/Q254A); conditions: DEER; light state and dark-state proxy; compared with WT CRYΔ
[2] = target: CRY Arg237Ala (Drosophila melanogaster, UniProt O77059, R237A); assay type: binding; conditions: fluorescence polarization; dark and light
CRY Arg237Ala, sequence (O77059 1-539 R237A): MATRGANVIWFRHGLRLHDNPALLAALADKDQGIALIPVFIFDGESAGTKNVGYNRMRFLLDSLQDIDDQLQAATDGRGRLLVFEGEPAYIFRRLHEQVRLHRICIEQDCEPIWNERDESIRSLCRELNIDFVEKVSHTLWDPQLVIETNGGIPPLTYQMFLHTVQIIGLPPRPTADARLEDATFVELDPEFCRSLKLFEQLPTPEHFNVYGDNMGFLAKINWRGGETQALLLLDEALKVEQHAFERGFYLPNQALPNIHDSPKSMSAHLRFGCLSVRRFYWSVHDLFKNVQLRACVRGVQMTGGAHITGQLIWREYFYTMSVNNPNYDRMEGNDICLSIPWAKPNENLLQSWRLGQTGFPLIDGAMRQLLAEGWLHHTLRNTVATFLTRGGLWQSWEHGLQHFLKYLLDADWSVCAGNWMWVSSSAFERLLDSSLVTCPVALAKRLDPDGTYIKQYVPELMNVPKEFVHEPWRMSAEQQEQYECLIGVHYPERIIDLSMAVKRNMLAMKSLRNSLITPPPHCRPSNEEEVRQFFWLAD

[3] = target: T1, CRY Asn253Ala/Gln254Ala; assay type: binding; conditions: fluorescence polarization; dark and light
[4] = target: CRY Full-Length (residues 1-539) (Drosophila melanogaster, UniProt O77059); assay type: binding; conditions: fluorescence polarization; dark and light
CRY Full-Length (residues 1-539), sequence (O77059 1-539): as the sequence (O77059 1-539 R237A) above, with A237R counted along it

[5] = target: CRYΔ (residues 1-520) (Drosophila melanogaster, UniProt O77059); assay type: binding; conditions: fluorescence polarization; dark and light
CRYΔ (residues 1-520), sequence (O77059 1-520, stated change not applied): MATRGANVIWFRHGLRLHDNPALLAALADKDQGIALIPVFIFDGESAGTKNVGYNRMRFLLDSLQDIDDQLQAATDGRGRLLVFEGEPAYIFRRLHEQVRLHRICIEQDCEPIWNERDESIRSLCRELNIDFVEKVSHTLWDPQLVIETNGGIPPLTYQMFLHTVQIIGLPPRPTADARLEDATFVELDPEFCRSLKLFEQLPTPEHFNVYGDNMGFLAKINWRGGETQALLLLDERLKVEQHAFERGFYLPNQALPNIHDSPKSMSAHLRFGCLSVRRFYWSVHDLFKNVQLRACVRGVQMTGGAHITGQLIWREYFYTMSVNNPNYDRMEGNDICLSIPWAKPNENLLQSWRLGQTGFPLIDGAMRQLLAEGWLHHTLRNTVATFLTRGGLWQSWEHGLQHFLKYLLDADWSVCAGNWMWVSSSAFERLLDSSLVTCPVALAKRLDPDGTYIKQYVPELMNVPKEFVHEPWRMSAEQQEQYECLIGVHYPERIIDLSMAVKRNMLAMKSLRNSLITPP

[6] = tested on: CRYΔ; conditions: ref [20]-[22]; cited from earlier work

T1 sequence (O77059 1-539 N253A/Q254A): as the sequence (O77059 1-539 R237A) above, with A237R, N253A, Q254A counted along it

For “S-TIMN-SL: S-TIMN spin-labeled with MTSL (MDWLLATPQLYSAFSSLGC(MTSL))”, the “interaction of spin-labeled S-TIMN with Asn253Ala/Gln254Ala (in words)” value [1] was “considerably different than that observed for WT CRYΔ”.

For MDWLLATPQLYSAFSSLGC [S-TIMN], the “binding to Arg237Ala (in words)” value [2] was “no detectable binding of S-TIMN in either dark or light; also recorded: does not bind to CRY in either dark or light”, the “binding to Asn253Ala/Gln254Ala (in words)” value [3] was “bound both in dark and light, with stronger binding and a larger fraction of binding in the dark” and the “binding to full-length CRY (in words)” value [4] was “bound to full-length CRY (residues 1-539) only in light with an affinity similar to that seen for CRYΔ in light”. For the same molecule, the “binding to CRYΔ (in words)” value [5] was “bound S-TIMN in both dark and light, but with somewhat higher affinity in the light; also recorded: reasonably high affinity in the dark and even tighter affinity in the light; also recorded: more strongly in light than dark”.

B1: full-length TIM: Drosophila core oscillator protein Timeless (protein, UniProt P49021 1-1398, looked up)
chain: MDWLLATPQLYSAFSSLGCLEGDTYVVNPNALAILEEINYKLTYEDQTLRTFRRAIGFGQNVRSDLIPLLENAKDDAVLESVIRILVNLTVPVECLFSVDVMYRTDVGRHTIFELNKLLYTSKEAFTEARSTKSVVEYMKHILESDPKLSPHKCDQINNCLLLLRNILHIPETHAHCVMPMMQSMPHGISMQNTILWNLFIQSIDKLLLYLMTCPQRAFWGVTMVQLIALIYKDQHVSTLQKLLSLWFEASLSESSEDNESNTSPPKQGSGDSSPMLTSDPTSDSSDNGSNGRGMGGGMREGTAATLQEVSRKGQEYQNAMARVPADKPDGSEEASDMTGNDSEQPGSPEQSQPAGESMDDGDYEDQRHRQLNEHGEEDEDEDEVEEEEYLQLGPASEPLNLTQQPADKVNNTTNPTSSAPQGCLGNEPFKPPPPLPVRASTSAHAQMQKFNESSYASHVSAVKLGQKSPHAGQLQLTKGKCCPQKRECPSSQSELSDCGYGTQVENQESISTSSNDDDGPQGKPQHQKPPCNTKPRNKPRTIMSPMDKKELRRKKLVKRSKSSLINMKGLVQHTPTDDDISNLLKEFTVDFLLKGYSYLVEELHMQLLSNAKVPIDTSHFFWLVTYFLKFAAQLELDMEHIDTILTYDVLSYLTYEGVSLCEQLELNARQEGSDLKPYLRRMHLVVTAIREFLQAIDTYNKVTHLNEDDKAHLRQLQLQISEMSDLRCLFVLLLRRFNPSIHSKQYLQDLVVTNHILLLILDSSAKLGGCQTIRLSEHITQFATLEVMHYYGILLEDFNNNGEFVNDCIFTMMHHIGGDLGQIGVLFQPIILKTYSRIWEADYELCDDWSDLIEYVIHKFMNTPPKSPLTIPTTSLTEMTKEHNQEHTVCSWSQEEMDTLYWYYVQSKKNNDIVGKIVKLFSNNGNKLKTRISIIQQLLQQDIITLLEYDDLMKFEDAEYQRTLLTTPTSATTESGIEIKECAYGKPSDDVQILLDLIIKENKAQHLLWLQRILIECCFVKLTLRSGLKVPEGDHIMEPVAYHCICKQKSIPVVQWNNEQSTTMLYQPFVLLLHKLGIQLPADAGSIFARIPDYWTPETMYGLAKKLGPLDKLNLKFDASELEDATASSPSRYHHTGPRNSLSSVSSLDVDLGDTEELALIPEVDAAVEKAHAMASTPSPSEIFAVPKTKHCNSIIRYTPDPTPPVPNWLQLVMRSKCNHRTGPSGDPSDCIGSSSTTVDDEGFGKSISAATSQAASTSMSTVNPTTTLSLNMLNTFMGSHNENSSSSGCGGTVSSLSMVALMSTGAAGGGGNTSGLEMDVDASMKSSFERLEVNGSHFSRANNLDQEYSAMVASVYEKEKELNSDNVSLASDLTRMYVSDEDDRLERTEIRVPHYH
modifications: full-length
For B1, the “binding of TIM to CRYΔ (in words)” value [6] is listed as “binds TIM in both dark and light”.
